From patent US9107909B2, “Materials and methods to enhance hematopoietic stem cells engraftment procedures” (priority 2008, dated 2015)

Legend:
Type in all cases: cell-based, mouse
[1] = system: active caspase-3 in SKL cells; experiment: Active caspase-3 by FACS in SKL cells
Description: All antibodies were purchased from BD Biosciences unless otherwise noted. For detection and sorting of murine KL and SKL cells, streptavidin conjugated with PE-Cy7 (to stain for biotinylated MACS lineage antibodies (Miltenyi Biotech, Auburn, Calif.)), c-kit-APC, Sca-1-PE or APC-Cy7, CD45. 1-PE and CD45.2-FITC were used. UCB CD34^+ cells were detected using anti-human-CD34-APC. For multilineage analysis, APC-Cy7-Mac-1, PE-Cy7-B-220 and APC-CD3 were used. EP receptors were detected with anti EP1, EP2, EP3 and EP4 rabbit IgG (Cayman Chemicals) and secondary staining with FITC-goat-anti-rabbit IgG (Southern Biotech, Birmingham, Ala.). CXCR4 expression was analyzed using streptavidin-PECy7, c-kit-APC, Sca-1-APC-Cy7, and CXCR4-PE. Apoptosis was measured with FITC-Annexin-V. For Survivin and active caspase-3 detection, cells were permeabilized and fixed using the CytoFix/CytoPerm kit (BD) and stained with anti-active-caspase-3-FITC Flow Kit (BD) or Survivin-PE (R&D Systems).
Expression of EP receptors, CXCR4 and Survivin Replicate Lin^neg cell samples from CD45.2 mice were stained for SKL and each of the EP receptors and surface receptor expression on KL and SKL cells determined by FACS. […] Replicate cells were stained for CD34 and each of the EP receptors and surface expression determined by FACS. […]

SKL cells = experiment: Apoptosis assay (Annexin-V+ SKL cells); settings: for apoptosis of SKL cells in vitro: 0.1 nanoMolar-1 microMolar
Procedure: Lin^neg cells were treated on ice with 0.1 nanoMolar to 1 microMolar dmPGE2 or vehicle control, washed and incubated in RPMI-1640+2% FBS, without growth factors at 37° C. to induce apoptosis. After 24 hours, cells were stained for SKL and Annexin-V and the proportion of Annexin-V^+ SKL cells was determined by FACS.
Apoptosis is an important regulatory process in normal and malignant hematopoiesis and PGE2 has been implicated in anti-apoptotic signalling. Moreover, activation of cAMP, a downstream signaling molecule of EP receptors, inhibits apoptosis in CD34^+ cells. […] To evaluate an effect of dmPGE2 on HSPC survival, Lin^neg cells were pulsed with 0.1 nanoMolar-1 microMolar dmPGE2 or vehicle and cultured in serum-reduced culture medium without growth factors.

[2] = system: CXCR4 on murine KL and SKL cells; experiment: CXCR4 surface expression by FACS after pulse exposure, murine cells; settings: for CXCR4 expression on KL and SKL cells: pulse-exposure of Lin neg cells, 24 hours
Description: Expression of EP receptors, CXCR4 and Survivin Replicate Lin^neg cell samples from CD45.2 mice were stained for SKL and each of the EP receptors and surface receptor expression on KL and SKL cells determined by FACS. For human EP receptors, UCB was obtained from Wishard Hospital, Indianapolis, Ind. with Institutional Review Board approval. Mononuclear cells were isolated on Ficoll-Paque™ Plus (Amersham Biosciences) and CD34^+ cells positively selected with MACS microbeads (Miltenyi Biotech) (Fukuda and Pelus, 2001). Replicate cells were stained for CD34 and each of the EP receptors and surface expression determined by FACS. To evaluate CXCR4, Survivin and active caspase-3, Lin^neg cells or CD34^+ UCB were treated on ice with either 1 microMolar dmPGE2 or vehicle control for 2 hours, washed, and then cultured in RPMI-1640+10% FBS at 37° C. for 24 hours. Cells were stained for SKL (murine cells) and CXCR4, Survivin, and/or active caspase-3, as described above, and analyzed by FACS.
To evaluate CXCR4, Lineage^neg mouse bone marrow cells or CD34^+ UCB were treated on ice with either 1 microMolar dmPGE2 or vehicle control for 2 hours, washed, and then cultured in RPMI-1640/10% HI-FBS at 37° C. for 24 hours, stained for SKL (murine cells) or CD34 (human) and CXCR4 and analyzed by FACS. Referring now to FIG. 4A, CXCR4 expression on murine KL and SKL cells and human CD34^+ UCB cells 24 hours after treatment with dmPGE2. Data are expressed as Mean±SEM % change in mean fluorescence intensity (MFI) of CXCR4 due to treatment with dmPGE2 or vehicle (n=3).

`CCCCC[C@H](O)/C=C/[C@H]1[C@H](O)CC(=O)[C@@H]1C/C=C\CCCC(=O)O` [PGE2, Prostaglandin E2] was tested, and the “decrease in active caspase-3” value ([1]; 24-72 hours post exposure) was 23-59%, the “apoptosis of SKL cells in vitro” value (SKL cells) was “dose-dependently decreased apoptosis” and the “increase in CXCR4 expression on SKL” value ([2]; after PGE2 exposure) was 26.8%. For the same molecule, the “CXCR4 expression on KL and SKL cells” value [2] was “increased”.

With `CCCCC(C)(C)[C@H](O)/C=C/[C@H]1[C@H](O)CC(=O)[C@@H]1C/C=C\CCCC(=O)O` [dmPGE2, 16,16-dimethyl prostaglandin E2] the “active caspase-3 in SKL cells” value ([1]; 24, 48 and 72 hours post-exposure, vs control) was “decreased active caspase-3”, the “apoptosis of SKL cells in vitro” value (SKL cells) was “reduced apoptosis in SKL cells in a dose dependent fashion” and the “inhibition of apoptosis in SKL cells” value (SKL cells; at 1 microMolar, serum-reduced medium without growth factors, 24 hours) was roughly 65%. For the same molecule, the “CXCR4 expression on KL and SKL cells” value [2] was “increased CXCR4 expression”.
